Assays:
[1] = tested on: three-dimensional (3D) epidermis model (keratinocytes); assay: 3D epidermis model, thickness of the epidermis (H&E and Ki67 stained sections); assay type: cell-based; details: 0.01 μM; for Thickness (whole) / Thickness (without stratum corneum): epidermis in stained sections
Method: With such 3D assays significant information is obtained about the complex stratification and terminal differentiation process of keratinocytes in a multilayered epidermal tissue with barrier functionality.
Furthermore, paraffin sectioning and a H&E and Ki67 staining was performed. The thickness of the epidermis in the stained sections was measured and compared between MDI 101, all-trans Retinol, all in a concentration of 0.01 μM and the DMSO control (FIG. 1).

[2] = Solubility and recrystallization in o/w emulsions (microscopy, polarized light); assay type: physicochemical
Method: Two pre-blends, A1 and A2, both containing 2.5 w/w % of Hydroxypinacolone Retinoate (MDI 101) were produced according to the above recipe. Three o/w emulsions (A, B and C) according to the following recipe were prepared: Heat Phases A and C separately up to 80° C. Disperse Phase B in A. Add Phase C to AB and emulsify by using an Ultra Turrax Stirrer (3 min, 6000 rpm). Add Phase D and neutralize. Allow to cool by using a vane stirrer. The emulsions were equal, except for the addition of MDI 101. […] As the pre-blends contain 2.5 wt.-% MDI 101, the final concentration of MDI 101 in the emulsions A, B and C was 0.05 wt.-% in all emulsions.

[3] = ABTS+ assay, anti-oxidative capacity; assay type: biochemical; details: 10 min at 30° C., 734 nm
Method: For the determination of the anti-oxidative capacity, the ABTS+-Assay was performed. The assay principle bases on the reduction and the involved decolourization of the green coloured cationic radical 2,2′-Azinobis(3-ethylbenzothiazoline 6-sulfonic acid) (ABTS+) by antioxidants. The decolourization can be measured spectrophotometrically at 734 nm.
The determination of the anti-oxidative capacity is performed in 96-well microplates from Nunc (Wiesbaden, Germany) and with the microplate reader “Spark” from Tecan (Crailsheim, Germany).
Samples were incubated for 10 min at 30° C. with the 2,2′-Azinobis-(3-ethylbenzothiazoline-6-sulfonate (ABTS+) radical cation (Sigma, St. Louis, USA) prepared by reaction of ABTS+ with potassium persulfate. As a positive control Trolox is always co-tested. The degree of decolourization was determined spectrophotometrically at 734 nm by […]. Results are mean values from 2 independent experiments with quadruple determinations each.
The antioxidative capacity is expressed in IC50 values (concentration that scavenges 50% of the cationic radical relative to the untreated ABTS+ solution), which can be determined by a trend calculation.

cells (proliferation) = assay: CyQUANT Direct Cell Proliferation Assay; assay type: cell-based; details: 0.00005 mM; 72 hours; media with 6% FBS
Method: To evaluate the pro-proliferative activity of MDI 101, the CyQUANT® Direct Cell Proliferation Assay was performed. The CyQUANT® Direct assay is based on a cell-permeant DNA-binding dye in combination with a background suppression reagent. As DNA content is highly regulated, cell number estimates are very accurate. The masking dye blocks staining of dead cells and cells with compromised cell membranes, causing only staining of healthy cells. Therefore, the CyQUANT® Direct assay measures proliferation as well as cytotoxicity. The fluorescence can be measured spectrophotometrically from bottom of well with standard green filter sets or wavelengths (EX/EM 508/527 nm).
The proliferation capacity is performed in black 96-well microplates from Corning (Germany) and with the microplate reader “Spark” from Tecan (Crailsheim, Germany).
Cells are seeded in a black 96 well microplate with transparent bottom and incubated at 37° C. and 5% CO2. After 24 hours the supernatant is decanted and the samples are added in fresh media with 6% FBS. As a positive control KGF is always co-tested. […] Then the CyQUANT® Direct assay is performed and the fluorescence is measured from bottom of well at EX/EM 508/527 nm.
The proliferation probability is expressed in percent, which can be determined by rule of proportion in combination with the control.

[4] = Cytotoxicity assay (TOX8 kit); assay type: cell-based, mouse; details: mouse, 3T3 swiss albino mouse fibroblasts; 3T3 fibroblasts, 48 h treatment; concentration in medium lethal for 20% of living cells (80% viability)
Method: (§1) The TOX8 (Sigma Aldrich) Kit was used to determine cytotoxicity retinoic acid, 3,3-dimethyl-2-oxobutyl ester (MDI 101) on 3T3 swiss albino mouse fibroblasts. The 3T3 were cultivated in DMEM medium (Capricorn) including 10% FBS, 1% Penicillin/Streptomycin and 100 nM sodium selenite at 37° C. and 5% CO2. For the cytotoxicity experiment, 3T3 were seeded into 96-well microtiter plate. After 24 hours incubation and a confluence of 30 to 40% the cells were treated with MDI 101 in four different concentrations for 48 h. Test substance was pre-diluted in DMSO, further dilutions were performed in equal medium with 5% FBS. After 48 h a microscopic estimation was carried out and the cells were incubated with TOX8-Kit for two hours at 37° C. and 5% CO2. The absorbance of a converted dye was measured by spectrophotometry at a wavelength of 600 nm. Bioreduction of the dye reduces the amount of its oxidized form (blue) and concomitantly increases the fluorescent intermediate (red), wherein the mechanism and applicability of the test is independent of the cell type. Cell viability was analyzed relative to the solvent-control. The inhibitory concentrations for 50% viability (IC50) and 80% (IC20) were calculated.
(§2) The specific concentration of MDI 101 in the cell culture medium, which is lethal for 20% (IC20) and for 50% (IC50) of living cells was determined: […]

[5] = tested on: 3T3 swiss albino mouse fibroblasts; assay: Cytotoxicity assay (TOX8 kit); assay type: cell-based; details: Mus musculus, Fibroblast; 3T3 fibroblasts, 48 h treatment; concentration in medium lethal for 50% of living cells
Method: as §1, §2

[6] = tested on: intracellular radicals (reactive oxygen species, ROS) in cells; assay: Dichlorofluorescein (DCF) assay, oxidative stress; assay type: cell-based; details: for ROS mean value / ROS reduction: 24 h incubation, relative to control
Method: For the quantification of intracellular radicals, the dichlorofluorescein (DCF) assay was performed. […] By intracellular esterases and oxidation, the nonfluorescent H2DCFDA is converted to the highly fluorescent 2′,7′-dichlorofluorescein (DCF). The nonfluorescent fluorescin (2′,7′-dichlorofluorescein diacetate (DCFH-DA) pass the cell membranes. In the cytoplasm, it is splitted by intracellular esterases and cannot leave out of the cell in this form. The oxidation by intracellularly existing ROS (reactive oxygen species) modifies the molecule so that will become DCF and emit fluorescence.
Determination of the anti-oxidative capacity is performed in 96-well microplates from Nunc (Wiesbaden, Germany) and with the microplate reader “Spark” from Tecan (Crailsheim, Germany).
Cells are seeded in a black 96 well microplate with transparent bottom and incubated at 37° C. After 24 hours the supernatant is decanted and fresh media with 0.1% FBS is succeded. Further 24 hours later the supernatant is decanted again and the test samples are added and incubated for 24 hours. Varying concentrations of MDI 101 in the cell culture medium were tested. As a positive control Trolox is always co-tested. Then the DCF Assay is performed and the fluorescence is measured from bottom of well at EX/EM 485/528 nm. The antioxidative capacity is expressed in percent, which can be determined by rule of proportion in combination with the control.

Solubility after pre-solving in diisopropyl adipate ([2]; pre-solved in diisopropyl adipate, recrystallization could be avoided)	Solubility in cosmetic or pharmaceutical compositions (e.g. emulsions) ([2]; sole powder)	SMILES	Thickness (whole) [1]	Thickness (without stratum corneum) [1]	Mean inhibition ([3]; 2 μM)	Mean inhibition ([3]; 25 μM)	Mean inhibition ([3]; 50 μM)	Mean inhibition ([3]; 250 μM)	Mean inhibition ([3]; 500 μM)	Effect on the thickness of the epidermis (in words) ([1]; compared with all-trans Retinol in the same concentration)	Mean proliferation compared to control (100%) (cells (proliferation))	IC20 at 48 h [4]	IC50 [5]	ROS mean value ([6]; 0.002 μM)	ROS reduction ([6]; 0.002 μM)	ROS mean value ([6]; 0.02 μM)	ROS reduction ([6]; 0.02 μM)	Anti-oxidative effect (in words) ([6]; concentrations which should have no cytotoxic effect)
		CC1=C(/C=C/C(C)=C/C=C/C(C)=C/CO)C(C)(C)CCC1 [All-trans Retinol, reference compound]	150 μm	85 μm														
strongly improved the solubility	poor solubility	CC1=C(/C=C/C(C)=C/C=C/C(C)=C/C(=O)OCC(=O)C(C)(C)C)C(C)(C)CCC1 [MDI 101, retinoic acid, 3,3-dimethyl-2-oxobutyl ester]	157 μm	112.5 μm	8.8%	17.7%	27.3%	83.3%	96.4%	better than the effect of all-trans Retinol	125%	171 µM	263 µM	75%	25%	23%	77.5%	anti-oxidative effect

Source: patent US11801210B2, “Retinol replacement in skin treatment” (SYMRISE AG, priority 2018, dated 2023)
